Laboratory results from article PMC5045260 (Phytotherapy research : PTR, 2016).

Columns and labels:
[1] = target: T1, c-Met (Homo sapiens, UniProt P08581); assay: Z'-LYTE Tyr6 peptide kinase assay, […] ATP, purified c-Met kinase domain; type: biochemical
[2] = target: T1, c-Met; assay: Z'-LYTE Tyr6 peptide kinase assay, single concentration; type: biochemical

T1 sequence (P08581 956-1390 limits assumed): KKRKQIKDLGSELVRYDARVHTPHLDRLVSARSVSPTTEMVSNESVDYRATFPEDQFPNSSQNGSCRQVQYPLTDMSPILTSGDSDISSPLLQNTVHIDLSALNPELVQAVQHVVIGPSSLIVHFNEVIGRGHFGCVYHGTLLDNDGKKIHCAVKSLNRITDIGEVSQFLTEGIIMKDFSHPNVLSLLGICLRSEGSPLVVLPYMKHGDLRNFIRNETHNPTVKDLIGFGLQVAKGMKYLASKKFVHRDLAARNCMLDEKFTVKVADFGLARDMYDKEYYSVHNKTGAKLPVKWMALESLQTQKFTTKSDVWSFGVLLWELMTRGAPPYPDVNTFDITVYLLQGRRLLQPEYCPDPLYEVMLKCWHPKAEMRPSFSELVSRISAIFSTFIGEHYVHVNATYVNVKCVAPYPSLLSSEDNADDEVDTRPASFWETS

Compound	IC50 [1] [µM]	Z'-LYTE Tyr6 peptide kinase assay, single concentration (53% reduction at 5 μM), [2] [% reduction at 5]
Cc1cc(O)c(C=O)c2c1C(=O)Oc1c(C)c(O)c3c(c1O2)C(O)OC3=O (centres unmarked) [norstictic acid]	6.5	
C/C=C(/C=O)[C@@H](CC=O)CC(=O)OCCc1ccc(O)cc1 [oleocanthal]		53
